Test results as given in patent US9475328B2, “Developer for thermally responsive record materials” (Valspar Sourcing, Inc., priority 2012, dated 2016).

system: MCF-7, clone WS8 cells; assay: MCF-7 cell proliferation assay of estrogenic activity; assay type: cell-based, human; settings: logarithmic (base 10) Relative Proliferative Effect vs 17-beta estradiol; cell proliferation measured as total DNA; values 'expected or measured'
Excerpt: The MCF-7 assay is a useful test for assessing whether a polyhydric phenol compound is appreciably non-estrogenic. The MCF-7 assay uses MCF-7, clone WS8 cells to measure whether and to what extent a substance induces cell proliferation via estrogen receptor (ER)-mediated pathways. The method is described in “Test Method Nomination: MCF-7 Cell Proliferation Assay of Estrogenic Activity” submitted for validation by CertiChem, Inc. to the National Toxicology Program Interagency Center for the Evaluation of Alternative Toxicological Methods (NICEATM) on Jan. 19, 2006 (available online at http://iccvam.niehs.nih.gov/methods/endocrine/endodocs/SubmDoc.pdf).
A brief summary of the method of the aforementioned MCF-7 assay is provided below. MCF-7, clone WS8 cells are maintained at 37° C. in RMPI (Roswell Park Memorial Institute medium) containing Phenol Red (e.g., GIBCO Catalog Number 11875119) and supplemented with the indicated additives for routine culture. […] At the end of the 7 day exposure to the test chemical, the media is removed, the wells are washed once with 0.2 ml of HBSS (Hanks' Balanced Salt Solution), and then assayed to quantify amounts of DNA per well using a micro-plate modification of the Burton diphenylamine (DPA) assay, which is used to calculate the level of cell proliferation. […]

| SMILES | Log RPE |
| --- | --- |
| C[C@]12CC[C@@H]3c4ccc(O)cc4CC[C@H]3[C@@H]1CC[C@@H]2O [17β-estradiol] | 2.00 |
| Oc1ccc(Cc2ccc(O)cc2)cc1 [Bisphenol F] | −2 |

molecular target: T1, human estrogen receptor (Homo sapiens, UniProt P03372); assay: suitable in vitro assay whose results correlate with the MCF-7 assay (estrogenic activity); assay type: cell-based; settings: in vitro assay correlated to MCF-7 assay through common reference compounds
T1 sequence (P03372 1-595): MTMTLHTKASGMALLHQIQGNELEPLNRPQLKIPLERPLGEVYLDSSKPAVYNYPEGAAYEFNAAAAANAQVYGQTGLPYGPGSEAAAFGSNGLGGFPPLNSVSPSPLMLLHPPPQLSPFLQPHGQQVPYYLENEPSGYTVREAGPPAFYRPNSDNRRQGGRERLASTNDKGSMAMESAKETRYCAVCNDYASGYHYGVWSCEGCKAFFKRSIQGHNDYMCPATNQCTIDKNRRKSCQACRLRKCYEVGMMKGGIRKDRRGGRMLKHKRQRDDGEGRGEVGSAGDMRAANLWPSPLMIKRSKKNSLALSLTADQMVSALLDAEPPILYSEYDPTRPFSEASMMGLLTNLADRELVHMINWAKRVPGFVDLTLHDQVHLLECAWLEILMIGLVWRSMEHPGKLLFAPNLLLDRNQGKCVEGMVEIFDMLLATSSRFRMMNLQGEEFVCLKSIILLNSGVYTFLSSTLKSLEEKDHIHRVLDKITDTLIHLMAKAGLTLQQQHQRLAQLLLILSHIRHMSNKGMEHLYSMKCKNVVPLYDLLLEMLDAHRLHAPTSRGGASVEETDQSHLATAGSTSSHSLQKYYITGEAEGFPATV

| SMILES | estrogenic activity |
| --- | --- |
| Cc1cc(Cc2cc(C)cc(C(C)(C)C)c2O)c(O)c(C(C)(C)C)c1 [Structure 9] | do not exhibit appreciable estrogenic activity |
| CCCC(c1cc(C(C)(C)C)c(O)cc1C)c1cc(C(C)(C)C)c(O)cc1C [Structure 7, 4,4′-butylidenebis(2-t-butyl-5-methylphenol)] | do not exhibit appreciable estrogenic activity |
| CC(C)(C)c1cc(O)c(C(C)(C)C)cc1O [Structure 12, 2,5-di-t-butylhydroquinone] | do not exhibit appreciable estrogenic activity |
| Cc1cc(Cc2cc(C)c(O)c(C)c2)cc(C)c1O [Structure 6, 4,4′-methylenebis(2,6-dimethylphenol)] | do not exhibit appreciable estrogenic activity |
| CC(C)(C)c1cc(Cc2cc(C(C)(C)C)c(O)c(C(C)(C)C)c2)cc(C(C)(C)C)c1O [Structure 8, 4,4′-methylenebis(2,6-di-t-butylphenol)] | do not exhibit appreciable estrogenic activity |
